Patent publication US20210395674A1, “COMPOSITION FOR INCREASING BIOLOGICAL ACTIVITY OF STEM CELLS USING MIXTURE 4F” (YOUTH BIO GLOBAL CO., LTD., priority 2019, published 2021)

System: umbilical cord blood monocytes (MNCs) / EPC colonies
Test: Colony formation, proliferative ability and cell cycle in xeno-free culture
Format: cell-based, human
Experimental: FIG. […] Specifically, the isolation and culture of […] (EPC) is performed by density difference centrifugation using ficoll after receiving umbilical cord blood (IRB approval number 05-2017-053, 50 cc or more) of mothers who visited the Department of Obstetrics and Gynecology, Pusan National University, Yangsan to obtain monocytes (MNCs). After red blood cell lysis, the cells were seeded (7>10^6 cells/well) in a 6-well plate coated with fibronectin (1 μg/cm^2), and were cultured for 5 days in an atmosphere of 5% CO2 at 37° C. under conditions of each medium ([…] endothelial cell differentiation (EGM2 media)). […] After culture, the medium was exchanged every day, and the EPC colony attachment was identified and subcultured when 70% or more thereof is under a confluent state. According to the type of culture medium, the cells obtained by culturing with the conventional vascular endothelial cell differentiation medium […]
[…] Example 11 were separated into single cells, and proliferative ability, cell cycle change, and colony formation ability were analyzed in the same manner as in Example 6. For the control group of this example, cells cultured by the conventional culture method (L-EPC) and cells cultured in a medium containing each single component in a xeno-free medium [a group treated with fucoidan (Fu, 0.1 μg/ml), a group treated with a tauroursodeoxycholic acid (TD, 25 μM), a group treated with oleuropein (OLP, 0.5 μM), and a group treated with a vascular endothelial growth factor (VEGF, 100 ng/ml)]were used.

## vascular endothelial growth factor
xeno-free medium
  colony formation ability (EPC colonies): EPC colonies were identified
  division time of the cells: prolonged
xeno-free medium with single component
  expression of VE-cadherin: low
